Data set [1] concerns CYP3A4. Nature of the data set: Midazolam pharmacokinetics. The settings on record: for Midazolam AUC, median (dose normalized): 6 patients; for half-life: human, plasma, intravenous, 0.0145 mg/kg, Half-life of midazolam, median.
Data set [2] has as its target T1, mouse NR1I2 (Mus musculus, UniProt O54915).
T1 sequence (O54915 1-431): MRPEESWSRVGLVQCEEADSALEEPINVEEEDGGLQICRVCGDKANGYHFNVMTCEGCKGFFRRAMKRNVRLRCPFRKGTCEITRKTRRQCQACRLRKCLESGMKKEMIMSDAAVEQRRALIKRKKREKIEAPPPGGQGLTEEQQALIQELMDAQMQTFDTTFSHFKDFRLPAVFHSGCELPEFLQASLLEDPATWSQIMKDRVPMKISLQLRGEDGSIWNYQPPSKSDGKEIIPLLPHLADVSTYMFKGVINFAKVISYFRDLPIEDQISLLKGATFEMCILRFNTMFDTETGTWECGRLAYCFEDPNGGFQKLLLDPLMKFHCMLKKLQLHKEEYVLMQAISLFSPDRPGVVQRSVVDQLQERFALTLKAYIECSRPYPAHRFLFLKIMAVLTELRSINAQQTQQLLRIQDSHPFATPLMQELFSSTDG
Kind of data set: Luciferase reporter gene assay, full-length mouse NR1I2. In kind it is cell-based. The following applies: HepG2 cells, 24 hours; vinblastine 150-4800 ng/mL; PCN 50 μM.

The target in data set [3] is T2, human NR1I2 (Homo sapiens, UniProt O75469).
T2 sequence (O75469 1-434): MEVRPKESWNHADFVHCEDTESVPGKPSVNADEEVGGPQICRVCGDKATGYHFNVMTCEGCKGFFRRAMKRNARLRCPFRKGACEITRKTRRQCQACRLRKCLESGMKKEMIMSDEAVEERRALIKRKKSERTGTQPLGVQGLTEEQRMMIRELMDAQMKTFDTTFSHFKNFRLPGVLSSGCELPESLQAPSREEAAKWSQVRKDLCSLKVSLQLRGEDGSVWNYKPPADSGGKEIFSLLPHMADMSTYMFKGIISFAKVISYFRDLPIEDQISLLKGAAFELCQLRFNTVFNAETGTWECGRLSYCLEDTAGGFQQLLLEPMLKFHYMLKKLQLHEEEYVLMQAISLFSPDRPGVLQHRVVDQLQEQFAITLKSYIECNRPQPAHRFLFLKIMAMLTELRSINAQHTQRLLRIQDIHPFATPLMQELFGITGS
The following applies: HepG2 cells, 24 hours; vinblastine 150-4800 ng/mL; rifampin 10 μM.

In data set [4] the target is T3, human NR1I3 (Homo sapiens, UniProt Q14994).
T3 sequence (Q14994 1-348 isoform Q14994-2): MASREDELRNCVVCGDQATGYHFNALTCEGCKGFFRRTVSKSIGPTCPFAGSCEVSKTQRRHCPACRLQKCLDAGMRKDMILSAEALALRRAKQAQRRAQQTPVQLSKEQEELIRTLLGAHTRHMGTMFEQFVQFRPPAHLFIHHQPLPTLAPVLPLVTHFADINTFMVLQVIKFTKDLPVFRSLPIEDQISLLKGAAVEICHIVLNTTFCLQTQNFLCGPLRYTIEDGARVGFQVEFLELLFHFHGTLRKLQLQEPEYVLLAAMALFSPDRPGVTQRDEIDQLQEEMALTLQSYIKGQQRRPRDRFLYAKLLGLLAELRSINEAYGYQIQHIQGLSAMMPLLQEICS
T3 sequence (P28700 1-467 partner): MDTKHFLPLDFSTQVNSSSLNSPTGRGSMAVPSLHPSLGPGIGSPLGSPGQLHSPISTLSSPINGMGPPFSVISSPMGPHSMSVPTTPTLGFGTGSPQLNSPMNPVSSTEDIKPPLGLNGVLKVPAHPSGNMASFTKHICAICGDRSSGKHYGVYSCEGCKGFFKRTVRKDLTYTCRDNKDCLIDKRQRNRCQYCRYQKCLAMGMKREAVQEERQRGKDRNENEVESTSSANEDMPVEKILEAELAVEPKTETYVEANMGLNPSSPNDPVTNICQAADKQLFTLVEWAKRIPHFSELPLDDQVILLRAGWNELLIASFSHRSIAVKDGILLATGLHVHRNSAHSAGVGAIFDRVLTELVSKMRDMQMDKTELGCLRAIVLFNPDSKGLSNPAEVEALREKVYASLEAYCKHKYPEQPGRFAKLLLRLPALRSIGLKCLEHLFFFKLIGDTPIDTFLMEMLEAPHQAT
The settings on record: NIH3T3 cells, 24 hours; vinblastine 150-4800 ng/mL.

Data set [5] deals with T4, mouse NR1I3 (Mus musculus, UniProt O35627).
T4 sequence (O35627 1-358): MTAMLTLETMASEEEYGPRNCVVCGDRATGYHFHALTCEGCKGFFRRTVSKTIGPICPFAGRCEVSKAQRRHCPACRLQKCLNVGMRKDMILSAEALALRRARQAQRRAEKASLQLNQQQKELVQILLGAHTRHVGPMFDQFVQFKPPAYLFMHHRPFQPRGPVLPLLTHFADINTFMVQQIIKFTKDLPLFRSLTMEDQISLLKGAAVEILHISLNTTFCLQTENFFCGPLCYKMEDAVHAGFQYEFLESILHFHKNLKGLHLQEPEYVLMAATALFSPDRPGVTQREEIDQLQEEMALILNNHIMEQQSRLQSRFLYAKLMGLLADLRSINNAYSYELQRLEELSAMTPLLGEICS
The settings on record: NIH3T3 cells, 24 hours; vinblastine 150-4800 ng/mL.

In data set [6] the test system is CYP3A4. The settings on record: cited from earlier work.
Data set [7] relates to CYP3A4 protein in HepG2 cells. Kind of data set: CYP3A4 protein expression by Western blot in HepG2 cells. It is filed as cell-based, human. The settings on record: 48 hours, vinblastine 300 ng/mL and above (range 150-4800 ng/mL).

Structures are written as SMILES. Values joined by “and” are separate entries in the source; they are usually repeats but may differ in a detail not shown here. Identical values can stand only once.

Turning to `Cc1ncc2n1-c1ccc(Cl)cc1C(c1ccccc1F)=NC2` [midazolam], the “Midazolam AUC, median (dose normalized)” value is 46.4 ng·h/mL per mg in data set [1] (day 1 of cycle 1) and 31.0 ng·h/mL per mg in data set [1] (day 1 of cycle 4, after repeat vinblastine). The half-life in data set [1] (day 1 of cycle 1) is 152 min; in data set [1] (day 1 of cycle 4) it was 185 min. The “% ↑ Midazolam Cl” value in data set [1] (individual patients, cycle 4 vs cycle 1, after repeat vinblastine) is 51.7% and 35.9% and 216.7% and 2.5% and 46.9% and 6.9%. The “Midazolam clearance relative to value prior to treatment with vinblastine” value in data set [1] (one patient, midazolam on 5 occasions over 1.3 years, end of period) came to 3.6 fold.

With `C/C=C/C[C@@H](C)C(=O)[C@H]1C(=O)N[C@@H](C(C)C)C(=O)N(C)CC(=O)N(C)[C@@H](CC(C)C)C(=O)N[C@@H](C(C)C)C(=O)N(C)[C@@H](CC(C)C)C(=O)N[C@@H](C)C(=O)N[C@H](C)C(=O)N(C)[C@@H](CC(C)C)C(=O)N(C)[C@@H](CC(C)C)C(=O)N(C)[C@@H](C(C)C)C(=O)N1C` [valspodar], the “Increase in transcriptional (reporter) activity of mouse NR1I2” value in data set [2] was “Increased activity of the reporter was not observed”. Moreover, the “Increase in transcriptional (reporter) activity of human NR1I2” value in data set [3] was “Increased activity of the reporter was not observed”. Also, the “Effect on transcriptional activity of human NR1I3” value in data set [4] is “Increased activity of the reporter was not observed”. The “Effect on transcriptional activity of mouse NR1I3” value in data set [5] is listed as “Increased activity of the reporter was not observed”. Further, in data set [6], the CYP3A4 inhibition result is reported as “very weak CYP3A4 inhibitor”.

Take `CC[C@]1(O)C[C@@H]2CN(CCc3c([nH]c4ccccc34)[C@@](C(=O)OC)(c3cc4c(cc3OC)N(C)[C@H]3[C@@](O)(C(=O)OC)[C@H](OC(C)=O)[C@]5(CC)C=CCN6CC[C@]43[C@@H]65)C2)C1` [vinblastine, Vinblastine]: the “CYP3A4 protein expression compared to DMSO-treated control cells” value in data set [7] is on record as “substantially increased CYP3A4 protein expression”.

These data come from article PMC3100585 (The Annals of pharmacotherapy, 2010).
